Laboratory results from ChEMBL document CHEMBL1150976, “The selectivity of protein kinase inhibitors: a further update” (Biochem J, 2007).
Each block holds one compound with its values, some of them ahead of it.

Assays:
[1] = biological target: T1, 3-phosphoinositide-dependent protein kinase 1 (Homo sapiens) (UniProt O15530); test: Percentage PDK1 activity remaining in the presence of 25uM inhibitor
T1 sequence (whole entry): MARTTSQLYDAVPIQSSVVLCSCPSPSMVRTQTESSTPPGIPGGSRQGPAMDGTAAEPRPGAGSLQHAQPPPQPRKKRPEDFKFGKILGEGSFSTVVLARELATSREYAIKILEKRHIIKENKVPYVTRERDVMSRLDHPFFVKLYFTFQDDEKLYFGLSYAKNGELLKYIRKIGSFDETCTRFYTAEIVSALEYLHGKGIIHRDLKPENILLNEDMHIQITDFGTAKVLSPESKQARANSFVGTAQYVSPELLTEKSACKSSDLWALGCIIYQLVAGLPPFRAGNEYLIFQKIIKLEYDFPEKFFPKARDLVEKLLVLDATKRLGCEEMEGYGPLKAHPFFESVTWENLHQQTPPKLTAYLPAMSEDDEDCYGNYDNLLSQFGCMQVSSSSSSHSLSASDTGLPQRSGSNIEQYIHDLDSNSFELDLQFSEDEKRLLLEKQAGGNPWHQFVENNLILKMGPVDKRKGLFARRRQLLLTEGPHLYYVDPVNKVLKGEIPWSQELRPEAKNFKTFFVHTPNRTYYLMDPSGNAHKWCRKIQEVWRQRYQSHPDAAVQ

[2] = biological target: Ribosomal protein S6 kinase alpha-5 (Homo sapiens) (UniProt O75582); test: Percentage MSK1 activity remaining in the presence of 2uM inhibitor
Ribosomal protein S6 kinase alpha-5 (Homo sapiens), sequence (O75582 whole entry, looked up): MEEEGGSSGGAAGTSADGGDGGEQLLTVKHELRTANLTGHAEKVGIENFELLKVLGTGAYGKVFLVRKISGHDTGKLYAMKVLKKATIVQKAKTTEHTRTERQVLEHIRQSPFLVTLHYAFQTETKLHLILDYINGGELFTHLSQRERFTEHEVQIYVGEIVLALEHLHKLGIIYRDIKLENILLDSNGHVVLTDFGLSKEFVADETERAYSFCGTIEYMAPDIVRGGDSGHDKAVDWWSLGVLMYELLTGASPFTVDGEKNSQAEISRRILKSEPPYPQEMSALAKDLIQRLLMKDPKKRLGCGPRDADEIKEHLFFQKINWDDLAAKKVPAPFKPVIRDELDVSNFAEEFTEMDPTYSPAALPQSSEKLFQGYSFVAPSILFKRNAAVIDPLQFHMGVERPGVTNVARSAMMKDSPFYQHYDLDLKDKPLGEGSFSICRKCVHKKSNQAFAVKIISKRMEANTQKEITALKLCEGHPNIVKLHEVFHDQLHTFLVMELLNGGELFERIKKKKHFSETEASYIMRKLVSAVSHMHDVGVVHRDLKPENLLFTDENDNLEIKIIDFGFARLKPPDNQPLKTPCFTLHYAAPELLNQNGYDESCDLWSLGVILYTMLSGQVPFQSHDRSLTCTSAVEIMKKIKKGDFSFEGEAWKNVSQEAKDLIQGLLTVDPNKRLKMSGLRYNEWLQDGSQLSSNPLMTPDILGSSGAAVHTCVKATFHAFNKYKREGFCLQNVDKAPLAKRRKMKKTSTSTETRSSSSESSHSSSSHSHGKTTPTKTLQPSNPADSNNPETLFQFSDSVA

[3] = biological target: T1, 3-phosphoinositide-dependent protein kinase 1 (Homo sapiens); test: Percentage PDK1 activity remaining in the presence of 2uM inhibitor
[4] = biological target: Casein kinase II (Homo sapiens) (UniProt P67870+P68400+P19784); test: Percentage CK2 activity remaining in the presence of 2uM inhibitor; type: protein-complex assay
[5] = biological target: T2, Mitogen-activated protein kinase 13 (Homo sapiens) (UniProt O15264); test: Percentage p38delta activity remaining in the presence of 2uM inhibitor
T2 sequence (whole entry): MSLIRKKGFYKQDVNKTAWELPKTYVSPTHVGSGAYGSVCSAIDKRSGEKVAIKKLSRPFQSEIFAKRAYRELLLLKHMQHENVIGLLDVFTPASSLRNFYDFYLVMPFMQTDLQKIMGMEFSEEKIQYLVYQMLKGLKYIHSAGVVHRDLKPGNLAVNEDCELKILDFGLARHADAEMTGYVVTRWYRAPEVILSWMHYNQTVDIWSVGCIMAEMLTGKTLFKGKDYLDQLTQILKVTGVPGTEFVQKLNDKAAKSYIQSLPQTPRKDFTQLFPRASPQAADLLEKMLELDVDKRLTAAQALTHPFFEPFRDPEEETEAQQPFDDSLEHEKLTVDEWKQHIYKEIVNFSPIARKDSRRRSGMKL

[6] = biological target: T3, Serine/threonine-protein kinase D1 (Homo sapiens) (UniProt Q15139); test: Percentage PKD1 activity remaining in the presence of 2uM inhibitor
T3 sequence (whole entry): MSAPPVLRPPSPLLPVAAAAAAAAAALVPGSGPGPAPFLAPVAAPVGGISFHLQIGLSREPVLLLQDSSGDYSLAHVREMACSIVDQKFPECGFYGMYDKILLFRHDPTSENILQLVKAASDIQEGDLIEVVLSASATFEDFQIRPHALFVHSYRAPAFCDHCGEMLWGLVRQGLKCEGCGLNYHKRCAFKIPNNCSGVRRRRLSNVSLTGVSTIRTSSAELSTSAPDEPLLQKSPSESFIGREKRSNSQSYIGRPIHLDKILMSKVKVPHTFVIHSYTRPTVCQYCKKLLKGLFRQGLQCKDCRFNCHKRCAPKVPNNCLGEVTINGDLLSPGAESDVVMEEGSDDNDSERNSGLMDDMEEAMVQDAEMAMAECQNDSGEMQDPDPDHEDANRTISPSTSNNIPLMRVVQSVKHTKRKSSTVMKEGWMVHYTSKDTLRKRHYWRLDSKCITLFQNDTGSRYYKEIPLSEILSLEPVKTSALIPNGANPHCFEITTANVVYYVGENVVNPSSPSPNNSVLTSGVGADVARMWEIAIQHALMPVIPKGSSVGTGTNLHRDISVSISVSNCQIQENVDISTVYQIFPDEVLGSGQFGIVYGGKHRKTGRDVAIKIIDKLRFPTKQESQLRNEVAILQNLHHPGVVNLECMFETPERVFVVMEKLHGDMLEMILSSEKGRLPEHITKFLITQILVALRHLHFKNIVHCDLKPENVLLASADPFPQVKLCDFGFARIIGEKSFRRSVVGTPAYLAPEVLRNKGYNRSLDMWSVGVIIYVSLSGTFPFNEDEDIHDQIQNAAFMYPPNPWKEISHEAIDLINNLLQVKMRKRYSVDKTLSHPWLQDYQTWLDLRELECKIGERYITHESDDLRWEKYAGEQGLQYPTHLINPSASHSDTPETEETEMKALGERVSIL

[7] = biological target: T4, Aurora kinase C (Homo sapiens) (UniProt Q9UQB9); test: Percentage Aurora C activity remaining in the presence of 2uM inhibitor
T4 sequence (whole entry): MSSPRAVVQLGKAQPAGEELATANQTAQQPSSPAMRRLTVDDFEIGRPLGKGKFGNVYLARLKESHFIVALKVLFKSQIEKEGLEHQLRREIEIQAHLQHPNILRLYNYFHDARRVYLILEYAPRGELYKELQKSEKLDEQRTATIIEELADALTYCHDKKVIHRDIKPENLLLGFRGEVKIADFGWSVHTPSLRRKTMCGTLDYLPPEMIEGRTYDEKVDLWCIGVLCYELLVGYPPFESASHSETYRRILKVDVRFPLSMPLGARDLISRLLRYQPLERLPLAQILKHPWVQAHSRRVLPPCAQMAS

[8] = biological target: Serine/threonine-protein kinase pim-2 (Homo sapiens, UniProt Q9P1W9); test: Percentage PIM2 activity remaining in the presence of 2uM inhibitor
Serine/threonine-protein kinase pim-2, sequence (Q9P1W9 whole entry, looked up): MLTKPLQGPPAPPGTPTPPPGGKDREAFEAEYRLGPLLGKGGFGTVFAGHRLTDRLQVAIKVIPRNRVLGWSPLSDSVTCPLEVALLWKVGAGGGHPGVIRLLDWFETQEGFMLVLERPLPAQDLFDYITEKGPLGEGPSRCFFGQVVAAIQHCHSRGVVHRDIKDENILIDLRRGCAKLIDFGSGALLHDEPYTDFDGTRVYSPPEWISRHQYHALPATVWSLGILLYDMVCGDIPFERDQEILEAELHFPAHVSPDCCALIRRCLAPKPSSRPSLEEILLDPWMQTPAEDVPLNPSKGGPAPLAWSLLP

[9] = biological target: T5, Mitogen-activated protein kinase 9 (Homo sapiens, UniProt P45984); test: Percentage JNK2 activity remaining in the presence of 2uM inhibitor
T5 sequence (P45984 whole entry, looked up): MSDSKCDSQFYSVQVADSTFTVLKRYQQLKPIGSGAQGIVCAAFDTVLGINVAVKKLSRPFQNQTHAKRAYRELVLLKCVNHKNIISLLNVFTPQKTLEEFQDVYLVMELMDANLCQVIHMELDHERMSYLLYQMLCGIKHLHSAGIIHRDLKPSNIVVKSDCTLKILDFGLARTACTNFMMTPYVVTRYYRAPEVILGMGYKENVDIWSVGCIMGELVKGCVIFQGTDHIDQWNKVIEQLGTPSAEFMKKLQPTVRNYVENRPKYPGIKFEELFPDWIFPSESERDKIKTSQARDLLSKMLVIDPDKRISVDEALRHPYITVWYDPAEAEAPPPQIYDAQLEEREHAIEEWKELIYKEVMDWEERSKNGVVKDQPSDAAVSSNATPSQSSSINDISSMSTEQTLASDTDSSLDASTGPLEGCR

[10] = biological target: RAC-beta serine/threonine-protein kinase (Homo sapiens) (UniProt P31751); test: Percentage PKBbeta activity remaining in the presence of 0.01uM inhibitor
RAC-beta serine/threonine-protein kinase (Homo sapiens), sequence (P31751 whole entry): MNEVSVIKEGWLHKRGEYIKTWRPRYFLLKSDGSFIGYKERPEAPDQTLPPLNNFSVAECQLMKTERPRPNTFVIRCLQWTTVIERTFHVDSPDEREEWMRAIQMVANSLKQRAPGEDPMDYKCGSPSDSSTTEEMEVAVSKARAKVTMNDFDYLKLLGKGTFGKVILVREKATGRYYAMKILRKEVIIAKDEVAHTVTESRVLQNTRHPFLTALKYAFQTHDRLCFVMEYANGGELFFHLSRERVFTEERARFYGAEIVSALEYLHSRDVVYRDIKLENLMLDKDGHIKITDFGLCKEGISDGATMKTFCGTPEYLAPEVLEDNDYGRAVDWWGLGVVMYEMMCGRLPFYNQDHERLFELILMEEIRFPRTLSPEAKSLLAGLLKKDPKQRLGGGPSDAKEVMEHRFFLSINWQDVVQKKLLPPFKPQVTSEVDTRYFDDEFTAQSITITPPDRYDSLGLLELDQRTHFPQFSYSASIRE

[11] = biological target: Tyrosine-protein kinase CSK (Homo sapiens, UniProt P41240); test: Percentage CSK activity remaining in the presence of 3uM inhibitor
Tyrosine-protein kinase CSK, sequence (P41240 2-450 limits assumed): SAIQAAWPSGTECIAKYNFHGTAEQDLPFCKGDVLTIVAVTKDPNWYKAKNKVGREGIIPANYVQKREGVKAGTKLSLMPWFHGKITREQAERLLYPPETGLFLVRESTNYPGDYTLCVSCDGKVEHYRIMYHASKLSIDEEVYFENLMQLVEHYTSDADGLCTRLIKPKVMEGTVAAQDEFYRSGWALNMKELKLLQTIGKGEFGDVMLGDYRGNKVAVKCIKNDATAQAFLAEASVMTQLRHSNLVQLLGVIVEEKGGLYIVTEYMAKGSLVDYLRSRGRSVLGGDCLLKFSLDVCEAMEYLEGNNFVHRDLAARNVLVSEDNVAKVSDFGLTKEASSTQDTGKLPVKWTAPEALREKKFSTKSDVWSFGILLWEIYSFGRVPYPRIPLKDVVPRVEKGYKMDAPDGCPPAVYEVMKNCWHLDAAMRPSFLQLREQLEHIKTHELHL

[12] = biological target: MAP kinase-interacting serine/threonine-protein kinase 1 (Homo sapiens) (UniProt Q9BUB5); test: Percentage MNK1 activity remaining in the presence of 3uM inhibitor; settings: filed as antagonist
MAP kinase-interacting serine/threonine-protein kinase 1 (Homo sapiens), sequence (Q9BUB5 whole entry, looked up): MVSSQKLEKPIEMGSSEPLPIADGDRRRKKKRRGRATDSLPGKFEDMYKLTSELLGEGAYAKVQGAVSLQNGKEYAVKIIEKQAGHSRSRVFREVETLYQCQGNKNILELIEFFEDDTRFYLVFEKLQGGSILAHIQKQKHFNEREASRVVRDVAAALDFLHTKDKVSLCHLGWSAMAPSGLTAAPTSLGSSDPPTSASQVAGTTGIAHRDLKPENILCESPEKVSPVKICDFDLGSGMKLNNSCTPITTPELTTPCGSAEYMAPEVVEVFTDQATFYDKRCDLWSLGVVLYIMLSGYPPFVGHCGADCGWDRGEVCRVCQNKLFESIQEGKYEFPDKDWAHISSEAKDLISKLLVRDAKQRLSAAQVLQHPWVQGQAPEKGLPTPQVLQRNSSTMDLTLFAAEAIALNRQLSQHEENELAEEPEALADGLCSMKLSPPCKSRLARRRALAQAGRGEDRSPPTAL

[13] = biological target: T5, Mitogen-activated protein kinase 9; test: Percentage JNK2 activity remaining in the presence of 3uM inhibitor
[14] = biological target: Serine/threonine-protein kinase PAK 4 (Homo sapiens, UniProt O96013); test: Percentage PAK4 activity remaining in the presence of 3uM inhibitor
Serine/threonine-protein kinase PAK 4, sequence (O96013 whole entry, looked up): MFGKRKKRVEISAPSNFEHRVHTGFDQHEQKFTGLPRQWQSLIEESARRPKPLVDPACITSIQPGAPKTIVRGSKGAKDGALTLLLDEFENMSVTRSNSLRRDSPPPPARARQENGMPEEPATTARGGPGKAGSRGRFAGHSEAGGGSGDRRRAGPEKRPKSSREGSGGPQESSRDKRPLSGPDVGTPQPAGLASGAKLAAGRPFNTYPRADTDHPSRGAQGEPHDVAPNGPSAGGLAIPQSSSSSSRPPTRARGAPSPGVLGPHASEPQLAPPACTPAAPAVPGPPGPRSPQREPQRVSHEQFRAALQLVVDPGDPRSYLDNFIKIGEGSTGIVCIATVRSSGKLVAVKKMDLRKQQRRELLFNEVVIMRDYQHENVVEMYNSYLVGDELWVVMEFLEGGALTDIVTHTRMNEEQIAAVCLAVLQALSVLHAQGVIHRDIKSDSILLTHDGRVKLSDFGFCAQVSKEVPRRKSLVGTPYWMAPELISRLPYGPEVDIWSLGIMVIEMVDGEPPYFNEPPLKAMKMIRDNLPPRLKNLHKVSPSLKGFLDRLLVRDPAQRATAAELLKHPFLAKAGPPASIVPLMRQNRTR

Activity [1]: 83%
SMILES: NCCNS(=O)(=O)c1ccc(Cl)c2ccncc12

Activity [2]: 69%
Activity [3]: 92%
Activity [4]: 89%
Activity [5]: 81%
Activity [6]: 100%
Activity [7]: 79%
Activity [8]: 81%
Activity [9]: 85%
SMILES: Cn1cc(C2=C(c3ccc(Cl)cc3Cl)C(=O)NC2=O)c2ccccc21

SMILES: CN[C@@H]1C[C@H]2O[C@@](C)([C@@H]1OC)n1c3ccccc3c3c4c(c5c6ccccc6n2c5c31)C(=O)N[C@H]4O (stereo in doubt)
Activity [10]: 77%

Activity [11]: 55%
Activity [12]: 42%
Activity [13]: 83%
Activity [14]: 91%
SMILES: Cc1ccc(-c2c(C(=O)CF)n(CCCO)c3ncnc(N)c23)cc1
